Reference: ChEMBL document CHEMBL1153983, “Anti-HBV agents. Part 2: synthesis and in vitro anti-hepatitis B virus activities of alisol A derivatives” (Bioorg Med Chem Lett, 2009)

Assays:
[1] = test system: Hepatitis B virus; experiment: Antiviral activity against HBV assessed as inhibition of viral surface antigen secretion; assay type: functional, organism-based
[2] = test system: Hepatitis B virus; experiment: Antiviral activity against HBV assessed as inhibition of viral early antigen secretion; assay type: functional, organism-based
[3] = Cytotoxicity against human HepG2(2.2.15) cells; assay type: cell-based
[4] = Selectivity index, ratio of CC50 for human HepG2(2.2.15) cells to IC50 for HBV surface antigen secretion; assay type: functional
[5] = Selectivity index, ratio of CC50 for human HepG2(2.2.15) cells to IC50 for HBV early antigen secretion; assay type: functional

Row | IC50 [1] | IC50 [2] | SMILES | CC50 [3] | Ratio CC50/IC50 [4] | Ratio CC50/IC50 [5]
1 | 140 µM | > 400 µM | COCC(=O)O[C@@H](C[C@@H](C)C1=C2C[C@H](OC(=O)COC)[C@H]3[C@@]4(C)CCC(=O)C(C)(C)[C@@H]4CC[C@]3(C)[C@@]2(C)CC1)[C@@H](OC(=O)COC)C(C)(C)O | 400 µM | 2.9 | 
2 | < 38 µM | > 51 µM | CC(=O)OCC(=O)O[C@@H](C[C@@H](C)C1=C2C[C@H](OC(=O)COC(C)=O)[C@H]3[C@@]4(C)CCC(=O)C(C)(C)[C@@H]4CC[C@]3(C)[C@@]2(C)CC1)[C@@H](OC(=O)COC(C)=O)C(C)(C)O | 51 µM | >1.3 | <1
3 | 120 µM | > 250 µM | CC(=O)OCC(=O)O[C@@H](C[C@@H](C)[C@]12CC[C@@]3(C)[C@@]1(C[C@H](OC(=O)COC(C)=O)[C@H]1[C@@]4(C)CCC(=O)C(C)(C)[C@@H]4CC[C@@]13C)O2)[C@@H](OC(=O)COC(C)=O)C(C)(C)O | 250 µM | 2.1 | <1
4 | 51 µM | > 1600 µM | C=C(C)[C@H](OC(=O)COC(C)=O)[C@H](C[C@@H](C)[C@]12CC[C@@]3(C)[C@@]1(C[C@H](OC(=O)COC(C)=O)[C@H]1[C@@]4(C)CCC(=O)C(C)(C)[C@@H]4CC[C@@]13C)O2)OC(=O)COC(C)=O | > 1600 µM | >31 | 
5 | < 32 µM | < 32 µM | C=C(C)[C@H](OC(=O)COC(C)=O)[C@H](C[C@@H](C)C1=C2C[C@H](OC(=O)COC(C)=O)[C@H]3[C@@]4(C)CCC(=O)C(C)(C)[C@@H]4CC[C@]3(C)[C@@]2(C)CC1)OC(=O)COC(C)=O | < 30 µM |  | 
6 | 44 µM | > 1300 µM | C=C(C)[C@H](OC(=O)COC)[C@H](C[C@@H](C)[C@]12CC[C@@]3(C)[C@@]1(C[C@H](OC(=O)COC)[C@H]1[C@@]4(C)CCC(=O)C(C)(C)[C@@H]4CC[C@@]13C)O2)OC(=O)COC | > 1300 µM | >29 | 
7 | 110 µM | > 1600 µM | COCC(=O)O[C@@H](C[C@@H](C)[C@]12CC[C@@]3(C)[C@@]1(C[C@H](OC(=O)COC)[C@H]1[C@@]4(C)CCC(=O)C(C)(C)[C@@H]4CC[C@@]13C)O2)[C@@H](OC(=O)COC)C(C)(C)OC(=O)COC | > 800 µM | >7.3 | 
8 | 20 µM | > 1800 µM | C=C(C)[C@H](OC(=O)COCC)[C@H](C[C@@H](C)[C@]12CC[C@@]3(C)[C@@]1(C[C@H](OC(=O)COCC)[C@H]1[C@@]4(C)CCC(=O)C(C)(C)[C@@H]4CC[C@@]13C)O2)OC(=O)COCC | > 1800 µM | >90 | 
9 | > 920 µM | > 920 µM | C=C(C)[C@H](OC(=O)CCCC)[C@H](C[C@@H](C)C1=C2C[C@H](OC(=O)CCCC)[C@H]3[C@@]4(C)CCC(=O)C(C)(C)[C@@H]4CC[C@]3(C)[C@@]2(C)CC1)OC(=O)CCCC | > 920 µM |  | 
10 | > 1200 µM | > 1200 µM | C=C(C)[C@H](OC(=O)CC(C)C)[C@H](C[C@@H](C)C1=C2C[C@H](OC(=O)CC(C)C)[C@H]3[C@@]4(C)CCC(=O)C(C)(C)[C@@H]4CC[C@]3(C)[C@@]2(C)CC1)OC(=O)CC(C)C | > 1200 µM |  | 

Second part, the compound before the results:

Row | SMILES | IC50 [1] | IC50 [2] | CC50 [3] | Ratio CC50/IC50 [4] | Ratio CC50/IC50 [5]
11 | C[C@H](C[C@H](OC(=O)Cc1ccc([N+](=O)[O-])cc1)[C@@H](OC(=O)Cc1ccc([N+](=O)[O-])cc1)C(C)(C)O)C1=C2C[C@H](OC(=O)Cc3ccc([N+](=O)[O-])cc3)[C@H]3[C@@]4(C)CCC(=O)C(C)(C)[C@@H]4CC[C@]3(C)[C@@]2(C)CC1 | > 1000 µM | > 1000 µM | > 1000 µM |  | 
12 | C[C@H](C[C@H](OC(=O)COc1ccccc1)[C@@H](OC(=O)COc1ccccc1)C(C)(C)O)C1=C2C[C@H](OC(=O)COc3ccccc3)[C@H]3[C@@]4(C)CCC(=O)C(C)(C)[C@@H]4CC[C@]3(C)[C@@]2(C)CC1 | > 1300 µM | > 1300 µM | > 1300 µM |  | 
13 | CCOCC(=O)O[C@@H](C[C@@H](C)C1=C2C[C@H](OC(=O)COCC)[C@H]3[C@@]4(C)CCC(=O)C(C)(C)[C@@H]4CC[C@]3(C)[C@@]2(C)CC1)[C@@H](OC(=O)COCC)C(C)(C)OC(=O)COCC | 200 µM | 260 µM | > 2300 µM | >11 | >8.7
14 | C[C@H](C[C@H](OC(=O)c1ccc(Br)cc1)[C@@H](OC(=O)c1ccc(Br)cc1)C(C)(C)O)C1=C2C[C@H](OC(=O)c3ccc(Br)cc3)[C@H]3[C@@]4(C)CCC(=O)C(C)(C)[C@@H]4CC[C@]3(C)[C@@]2(C)CC1 | > 650 µM | > 650 µM | 650 µM | <1 | <1
15 | CCCCCCCC(=O)O[C@@H](C[C@@H](C)C1=C2C[C@H](OC(=O)CCCCCCC)[C@H]3[C@@]4(C)CCC(=O)C(C)(C)[C@@H]4CC[C@]3(C)[C@@]2(C)CC1)[C@@H](OC(=O)CCCCCCC)C(C)(C)O | > 600 µM | > 600 µM | > 600 µM |  | 
16 | C/C=C/C=C/C(=O)O[C@@H](C[C@@H](C)C1=C2C[C@H](OC(=O)/C=C/C=C/C)[C@H]3[C@@]4(C)CCC(=O)C(C)(C)[C@@H]4CC[C@]3(C)[C@@]2(C)CC1)[C@@H](OC(=O)/C=C/C=C/C)C(C)(C)O | > 900 µM | > 900 µM | > 900 µM |  | 
17 | C[C@H](C[C@H](OC(=O)c1ccccc1I)[C@@H](OC(=O)c1ccccc1I)C(C)(C)O)C1=C2C[C@H](OC(=O)c3ccccc3I)[C@H]3[C@@]4(C)CCC(=O)C(C)(C)[C@@H]4CC[C@]3(C)[C@@]2(C)CC1 | > 1500 µM | > 1500 µM | > 1500 µM |  | 
18 | C[C@H](C[C@H](OC(=O)CC(C)(C)C)[C@@H](OC(=O)CC(C)(C)C)C(C)(C)O)C1=C2C[C@H](OC(=O)CC(C)(C)C)[C@H]3[C@@]4(C)CCC(=O)C(C)(C)[C@@H]4CC[C@]3(C)[C@@]2(C)CC1 | > 1200 µM | > 1200 µM | > 1200 µM |  | 
19 | C[C@H](C[C@H](OC(=O)CCOc1ccccc1)[C@@H](OC(=O)CCOc1ccccc1)C(C)(C)O)C1=C2C[C@H](OC(=O)CCOc3ccccc3)[C@H]3[C@@]4(C)CCC(=O)C(C)(C)[C@@H]4CC[C@]3(C)[C@@]2(C)CC1 | > 950 µM | > 950 µM | > 950 µM |  | 
20 | CCCCC(=O)O[C@@H](C[C@@H](C)C1=C2C[C@H](OC(=O)CCCC)[C@H]3[C@@]4(C)CCC(=O)C(C)(C)[C@@H]4CC[C@]3(C)[C@@]2(C)CC1)[C@@H](OC(=O)CCCC)C(C)(C)O | > 1300 µM | > 1300 µM | > 1300 µM |  | 
21 | C[C@H](C[C@H](OC(=O)c1ccc(Cl)cc1)[C@@H](OC(=O)c1ccc(Cl)cc1)C(C)(C)O)C1=C2C[C@H](OC(=O)c3ccc(Cl)cc3)[C@H]3[C@@]4(C)CCC(=O)C(C)(C)[C@@H]4CC[C@]3(C)[C@@]2(C)CC1 | > 900 µM | > 900 µM | > 900 µM |  | 
22 | C/C=C/C(=O)O[C@@H](C[C@@H](C)C1=C2C[C@H](OC(=O)/C=C/C)[C@H]3[C@@]4(C)CCC(=O)C(C)(C)[C@@H]4CC[C@]3(C)[C@@]2(C)CC1)[C@@H](OC(=O)/C=C/C)C(C)(C)O | > 850 µM | > 850 µM | > 850 µM |  | 
23 | C[C@H](C[C@H](OC(=O)C1CCCCC1)[C@@H](OC(=O)C1CCCCC1)C(C)(C)O)C1=C2C[C@H](OC(=O)C3CCCCC3)[C@H]3[C@@]4(C)CCC(=O)C(C)(C)[C@@H]4CC[C@]3(C)[C@@]2(C)CC1 | > 800 µM | > 800 µM | > 800 µM |  | 
24 | C[C@H](C[C@H](OC(=O)/C=C/c1ccccc1Cl)[C@@H](OC(=O)/C=C/c1ccccc1Cl)C(C)(C)O)C1=C2C[C@H](OC(=O)/C=C/c3ccccc3Cl)[C@H]3[C@@]4(C)CCC(=O)C(C)(C)[C@@H]4CC[C@]3(C)[C@@]2(C)CC1 | 950 µM | > 1300 µM | > 1300 µM | >1.3 | 
25 | C[C@H](C[C@H](OC(=O)c1ccc(Cl)cc1Cl)[C@@H](OC(=O)c1ccc(Cl)cc1Cl)C(C)(C)O)C1=C2C[C@H](OC(=O)c3ccc(Cl)cc3Cl)[C@H]3[C@@]4(C)CCC(=O)C(C)(C)[C@@H]4CC[C@]3(C)[C@@]2(C)CC1 | > 1200 µM | > 1200 µM | > 1200 µM |  | 
26 | CC(C)CCC(=O)O[C@@H](C[C@@H](C)C1=C2C[C@H](OC(=O)CCC(C)C)[C@H]3[C@@]4(C)CCC(=O)C(C)(C)[C@@H]4CC[C@]3(C)[C@@]2(C)CC1)[C@@H](OC(=O)CCC(C)C)C(C)(C)O | > 900 µM | > 900 µM | > 900 µM |  | 
27 | C[C@H](C[C@H](OC(=O)C1CC1)[C@@H](OC(=O)C1CC1)C(C)(C)O)C1=C2C[C@H](OC(=O)C3CC3)[C@H]3[C@@]4(C)CCC(=O)C(C)(C)[C@@H]4CC[C@]3(C)[C@@]2(C)CC1 | > 1000 µM | > 1000 µM | > 1000 µM |  | 
28 | CC(C)CC(=O)O[C@@H](C[C@@H](C)C1=C2C[C@H](OC(=O)CC(C)C)[C@H]3[C@@]4(C)CCC(=O)C(C)(C)[C@@H]4CC[C@]3(C)[C@@]2(C)CC1)[C@@H](OC(=O)CC(C)C)C(C)(C)O | > 1200 µM | > 1200 µM | > 1200 µM |  | 
29 | C[C@H](C[C@H](OC(=O)C1CCCC1)[C@@H](OC(=O)C1CCCC1)C(C)(C)O)C1=C2C[C@H](OC(=O)C3CCCC3)[C@H]3[C@@]4(C)CCC(=O)C(C)(C)[C@@H]4CC[C@]3(C)[C@@]2(C)CC1 | > 1100 µM | > 1100 µM | > 1100 µM |  | 
30 | CCC(CC)C(=O)O[C@@H](C[C@@H](C)C1=C2C[C@H](OC(=O)C(CC)CC)[C@H]3[C@@]4(C)CCC(=O)C(C)(C)[C@@H]4CC[C@]3(C)[C@@]2(C)CC1)[C@@H](OC(=O)C(CC)CC)C(C)(C)O | > 1100 µM | > 1100 µM | > 1100 µM |  | 
31 | C[C@H](C[C@H](OC(=O)CCC1CCCCC1)[C@@H](OC(=O)CCC1CCCCC1)C(C)(C)O)C1=C2C[C@H](OC(=O)CCC3CCCCC3)[C@H]3[C@@]4(C)CCC(=O)C(C)(C)[C@@H]4CC[C@]3(C)[C@@]2(C)CC1 | > 810 µM | > 810 µM | > 810 µM |  | 
